These are literature values, as cited in patent publication US20050249757A1, “Pharmaceutical cream formulations” (Glenmark Pharmaceuticals Limited, priority 2004, published 2005).

Molecules are shown by their SMILES.

The test system of one series is human subjects. As to conditions: 50 human subjects, total of 15 applications; manufacturer's brochure.
A further series has as its system rabbit skin. The note with it: described as practically nonirritating.
The target in another series is macrophilin-12 (FKBP-12) (Homo sapiens, UniProt P62942).
In a further series the test system is human T cells. The note with it: Th1-type and Th2-type cytokines.

macrophilin-12 (FKBP-12), sequence (P62942 whole entry): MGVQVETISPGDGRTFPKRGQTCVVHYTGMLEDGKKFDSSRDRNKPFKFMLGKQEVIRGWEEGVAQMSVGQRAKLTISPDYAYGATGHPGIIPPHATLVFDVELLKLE

In the case of `CN1CCCC1=O` [Pharmasolve, N-methyl-2-pyrrolidone], in the series on human subjects, the “Dermal irritation and sensitization in repeated insult patch test” value is recorded as “neither a primary dermal irritant nor a sensitizer”. Moreover, the “PII (skin irritation)” value in the series with rabbit skin is 0.5.
On to `CC[C@@H]1/C=C(\C)C[C@H](C)C[C@H](OC)[C@H]2O[C@@](O)(C(=O)C(=O)N3CCCC[C@H]3C(=O)O[C@H](/C(C)=C/[C@@H]3CC[C@H](Cl)[C@H](OC)C3)[C@H](C)[C@@H](O)CC1=O)[C@H](C)C[C@@H]2OC` [pimecrolimus, (1R,9S,12S,13R,14S,17R,18E,21 S,23S,24R,25S,27R)-12-[(1E)-2-{(1R,3R,4S)-4-chloro-3-methoxycyclohexyl}-1-methylvinyl]-17-ethyl-1,14-dihydroxy-23,25-dimethoxy-13,19,21,27-tetramethyl-11,28-dioxa-4-aza-tricyclo[22.3.1.04,9]octacos-18-ene-2,3,10,16-tetraone], for which the “Binding affinity to macrophilin-12 (FKBP-12)” value on macrophilin-12 (FKBP-12) is reported as “high affinity”. Moreover, the “Concentration inhibiting Interleukin-2, interferon gamma, Interleukin-4 and Interleukin-10 cytokine synthesis” value in the series with human T cells was “nanomolar concentrations”.
